From the supplement of paper PMC5844555

Experiments:
Experiment in all cases: 3' UTR reporter interaction score (median-centred robust z-score of log2 firefly/Renilla activity); higher = less repression of the 3' UTR reporter
Settings in all cases: HEK293T; 48 h
RB1 = system: RB1
In short: (§1)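 In at least two independent screens, HEK293T cells in 96-well plates (10,000/well) were co-transfected with DharmaFECT Duo using 100 ng firefly luc2P reporter with the gene's 3' UTR, 20 ng Renilla pRL-TK control and 2.5 pmol miRNA mimic, and dual-luciferase activities were read at 48 h. The interaction score, averaged across screens, is the per-plate robust z-score (median, median absolute deviation) of the log firefly/Renilla ratio, median-centred per miRNA, with more negative indicating interaction.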

TP53 = system: TP53
In short: as §1

MYB = system: MYB
In short: as §1

HRAS = system: HRAS
In short: as §1

EZH2 = system: EZH2
In short: as §1

NOTCH1 = system: NOTCH1
In short: as §1

ZEB2 = system: ZEB2
In short: as §1

FBXW7 = system: FBXW7
In short: as §1

BRCA2 = system: BRCA2
In short: as §1

MYT1L = system: MYT1L
In short: as §1

MYCN = system: MYCN
In short: as §1

PHOX2B = system: PHOX2B
In short: as §1

PHF6 = system: PHF6
In short: as §1

MYC = system: MYC
In short: as §1

Sequence	3' UTR reporter interaction score (RB1)	3' UTR reporter interaction score (TP53)	3' UTR reporter interaction score (MYB)	3' UTR reporter interaction score (HRAS)	3' UTR reporter interaction score (EZH2)	3' UTR reporter interaction score (NOTCH1)	3' UTR reporter interaction score (ZEB2)	3' UTR reporter interaction score (FBXW7)	3' UTR reporter interaction score (BRCA2)	3' UTR reporter interaction score (MYT1L)	3' UTR reporter interaction score (MYCN)	3' UTR reporter interaction score (PHOX2B)	3' UTR reporter interaction score (PHF6)	3' UTR reporter interaction score (MYC)
UCCCUGAGACCCUUUAACCUGUG	0.0838	-3.91	-0.228	1.12	1.1	-0.719	0.152	-0.449	0.772	0.364	-0.334	-2.78	1.62	0.131
UGGGCGUAUCUGUAUGCUA	-0.659	-0.0916	0.397	-0.235	-1.3	-2.02	2.53	0.752	-0.638	0.105	0.906	2.15	1.09	-0.549
AAGGAGCUCACAGUCUAUUGAG	0.838	-1.32	1.45	0.291	-0.897	-1.13	1.75	0.924	-1.14	0.551	1.38	0.65	-0.478	-0.238
UUUGUUCGUUCGGCUCGCGUGA	-0.809	0.275	-0.574	-0.635	0.52	0.323	0.164	-0.0777	1.05	-0.751	-0.313	0.0504	1.7	0.135
UGGUUUACCGUCCCACAUACAU	0.158	-0.635	0.643	-0.0846	0.684	-0.0746	1.07	0.14	-0.68	1.3	0.327	0.385	-0.512	-0.285
CAAAGCGCUUCUCUUUAGAGUG	-4.99e-18	0.068	-0.443	0.465	0.725	0.203	-0.101	-1.3	0.562	-0.533	-0.402	-1.15	1.07	1.05
UAGCAGCACGUAAAUAUUGGCG	-0.115	-0.054	0.8	-0.0204	0.0745	-0.0927	0.217	-0.915	-0.0822	-0.142	0.0935	-0.629	-0.551	0.946
AAGUGCUUCCUUUUAGAGGGUU	1.62	-1	-0.72	-0.113	-1.25	0.466	0.00821	0.635	-0.82	0.457	0.896	0.633	1.07	-0.869
UGGUGGGCCGCAGAACAUGUGC	-1.35	0.539	-0.29	-0.926	-0.375	-1.38	0.648	1.65	-0.495	1.92	0.848	0.685	-0.487	0.0166
AAUUGCACUUUAGCAAUGGUGA	1.39	-1.5	-0.332	-0.0471	-0.64	-0.161	-2.8	-4.25	1.07	0.317	0.969	0.339	2.86	0.3
UAUUGCUUAAGAAUACGCGUAG	0.636	-0.087	-0.789	0.147	0.837	-0.139	0.0907	-1.25	0.543	0.685	0.474	-0.259	-1.32	-0.116
UUGAGAAUGAUGAAUCAUUAGG	-0.111	0.335	0.0167	1.09	-0.195	0.0298	-0.412	-0.3	0.13	-0.0444	-0.554	-0.12	-1.78	0.0578
AUCACACAAAGGCAACUUUUGU	0.566	-0.723	0.989	-0.777	-1.06	0.929	-0.747	-0.0452	-0.664	0.734	0.776	0.549	-0.33	0.0727
CUGCAAAGGGAAGCCCUUUCU	1.27	0.104	1.16	0.112	-3.8	-1.22	-4.11	-3.15	-0.0732	0.529	1.29	-0.887	-2.67	1.15
AUCGUGCAUCCCUUUAGAGUGUU	0.943	-0.928	0.132	-0.945	0.461	-0.525	-2.08	0.0524	0.348	0.0982	0.792	-0.0114	1.97	-0.211
ACUUACAGACAAGAGCCUUGCUC	-0.353	0.219	-2.25	1.57	-1.69	0.216	-0.165	1.72	0.948	-1.75	-0.0923	1.47	-1.11	0.117
UCAGUGCAUGACAGAACUUGGG	-2.16	-0.341	-1.5	-1.05	0.0466	0.274	1.1	0.501	-0.0322	0.827	0.0157	-1.31	1.76	0.213
GCGACCCACUCUUGGUUUCCA	-2.3	0.384	0.396	-0.85	0.786	0.563	-0.694	0.92	-0.537	-0.645	0.0444	0.84	-1.86	-0.5
UCGUGUCUUGUGUUGCAGCCG	-0.468	-0.142	0.669	-0.272	0.0252	-0.0902	0.403	-0.364	-0.341	-0.0239	0.852	-0.401	-0.112	-0.116
